The test system of data set [1] is MDA-MB-468 human breast cancer cells. The data set can be described thus: Propidium iodide staining / flow cytometry (sub-G1) of cells exposed to purified peptide. The data set is classed as cell-based. The note with it: 30 uM peptide, 6 hours. Here is the method:
Effects of the C-Terminal p53 Palindromic Tetrapeptide on Cells in Culture. MDA-MB-468 human breast cancer cells were grown in culture and exposed for 6 hours with no peptide (control) or with 30 μM of either the single p53 C-terminal peptide fused to the Ant carrier (p53-Ant) or with the His tagged p53 palindromic tetrapeptide fused to the Ant carrier (4 Repeat). The DNA within the cells was then stained with propidium iodide and cell particles were assayed by flow cytometry. The percent within each graph represents the percent cell particles with less than a diploid amount of DNA, indicative of apoptotic cells (sub G1 population).
In order to test the effect of the C-terminal p53 palindromic peptide cloned in E. Coli on cells in culture, the purified peptide was incubated at 30 μM with the human breast cancer cell line MDA-MB-468, and the effects compared to original monomer or single C-terminal peptide. Prior experiments had shown that exposure at this concentration was less than the IC50 for the original peptide. […] The DNA content was then quantified by flow cytometry in a FACSCalibur Cell Sorter (BD Bioscience, San Diego, Calif.). Cell cycle profiles were obtained, and the percentage of cells containing less than the diploid amount of DNA, indicative of cell undergoing cell death by apoptosis (sub-G1 peak), was quantified (FIG. 3).

The test system of data set [2] is p53 responsive proteins (Bax, Fas, caspase 8) and PARP in engineered MDA-MB-468 cells. The data set is described as follows: Immunoblot of p53 responsive proteins and PARP cleavage after doxycycline induction. It is filed as cell-based, human. The note with it: for Bax expression: doxycycline 2 μg/ml, 12, 36 and 48 hours; for PARP cleavage product: after 4-repeat induction with doxycycline. As to the method:
Changes in the protein expression levels for the pro-apoptotic protein Bax, an active p53 responsive gene, induced by exposure to the tetracycline analog doxycycline (2 μg/ml) for 12, 36 and 48 hours. Engineered MDA-MB-468 cells were collected after the indicated exposure times and the total protein was extracted, an aliquot was run on a 12% acrylamide/SDS PAGE gel, and blotted onto nitrocellulose membranes. Antibodies specific for Bax, the 4-repeat (p53) and PARP were used to determine expression levels and α-tubulin was used as a loading control.
Changes in the protein expression levels for the p53 responsive genes encoding Fas and caspase 8, 24 hours after the engineered MDA-MB-468 cells were exposed to the indicated concentrations of doxycycline. A PARP cleavage product is also shown. α-tubulin was used as a loading control.
For the tetracycline-inducible peptide systems in MDA-MB-468 cells, cells were exposed to various concentrations of doxycycline for 24-48 hours and cell death measured by trypan blue exclusion (only dying cells are permeable to this dye) and propidium iodide staining (as above, in cells undergoing apoptosis DNA is cleaved so less PI can be bound resulting in accumulation of a sub-G1 peak of cells on flow cytometry). […] This implies a unique difference between the monomer and the 4 repeat.
(§1) Furthermore, using a specific inhibitor for caspase 8 eliminated the death induced by the C-terminal p53 palindromic tetrapeptide expression. The cleavage of the DNA repair signal protein poly-adenosyl-ribose polymerase (PARP), a key indicator of apoptosis, was also observed with the C-terminal p53 palindromic tetramer expression (FIGS. 5 and 6). Finally, one of the later events to occur as cells are undergoing apoptosis is the endonuclease cleavage of chromatin DNA at the DNA linker site between nucleosomes. These DNA fragments can be end-labeled with fluorescent-dUTP with the use of terminal deoxynucleotidyl transferase. This technique, called TUNEL, is extremely sensitive for the detection of apoptosis. We used a commercial TUNEL assay (Medical & Biological Labs, Nagoya, Japan) with flow cytometry to examine these engineered cells. By this assay, 80% of the cells were killed with induction of the 4 repeat by doxycycline treatment (FIG. 7). Furthermore, by using a specific inhibitor for caspase 8, IETD-FMK ([…], Nagoya, Japan), death induced by the C-terminal p53 palindromic peptide expression (FIG. 7) was eliminated. All of these findings support an apoptotic mechanism of cell death by this peptide.

The test system of data set [3] is MDA-MB-468 cells. The data set can be described thus: Trypan blue exclusion in tetracycline-inducible peptide-expressing cells. It is filed as cell-based, human. The note with it: doxycycline induction 24-48 hours. The text has this: The MDA-MB-468 breast cancer cell line which expresses high levels of mutant p53 (Arg to His substitution at amino acid 273, one of the two most common p53 mutations in human cancers) was chosen as the model system. The tetracycline-inducible RevTet-On System (Clontech Laboratories, Palo Alto, Calif.) was used for these studies. Stably expressed reverse tetracycline-controlled transactivator (rtTA), under the control of a CMV promoter, was first established in the MDA-MB-468 cell line. Initially immunoblots with an antibody against the transactivator were used to identify high expression; subsequently a luciferase reporter system was used to identify highly inducible clones. This assay incorporated a luciferase reporter (Promega, Madison, Wis.) with the inducible pREvTRE vector of the RevTet-On system to measure the ability of tetracycline to induce luciferase activity. […]
(§2) For the tetracycline-inducible peptide systems in MDA-MB-468 cells, cells were exposed to various concentrations of doxycycline for 24-48 hours and cell death measured by trypan blue exclusion (only dying cells are permeable to this dye) and propidium iodide staining (as above, in cells undergoing apoptosis DNA is cleaved so less PI can be bound resulting in accumulation of a sub-G1 peak of cells on flow cytometry). […]

Data set [4] relates to MDA-MB-468 cells. The data set is described as follows: Propidium iodide staining / flow cytometry (sub-G1) in tetracycline-inducible peptide-expressing cells. The data set is classed as cell-based, human. As to the method:
Effects of endogenous, regulated expression of the 4 repeat peptide on cell viability. MDA-MB-468 cells engineered to express the palindromic p53 4 repeat peptide under the control of a tetracycline responsive promoter were cultured without or with the addition of 2 μg/ml doxycycline, an analog of tetracycline, for 24, 48 or 72 hours. Cells were collected, fixed in ice cold 70% ethanol and the DNA was stained with propidium iodide. Cell cycle profiles were obtained by flow cytometry and the percent of sub-G1 cell particles, indicative of apoptosis, was quantified.
The MDA-MB-468 breast cancer cell line which expresses high levels of mutant p53 (Arg to His substitution at amino acid 273, one of the two most common p53 mutations in human cancers) was chosen as the model system. The tetracycline-inducible RevTet-On System (Clontech Laboratories, Palo Alto, Calif.) was used for these studies. […]
as §2

The next data set deals with 9L rat glioma. The data set is described as follows: Survival of rats with intracerebral 9L glioma infused with adenovirus. It is filed as in vivo, male fischer rats. The note with it: concluding statement of rat glioma study. Here is the method:
Survival analysis of male rats initially injected with 5 μl of 10^5 9L cells over […] (Tumor implantation) through a catheter stereotactically inserted into the right caudate nucleus. These rats were subsequently infused with 7-8 μl volumes per day over 3 hours a day for a total of 7 days in three groups as follows: 2 rats received phosphate buffered saline (PBS control) solution, 3 rats received Ad/vector control virus (Empty Virus Control), and 10 rats received Ad/4-rep-p53p adenovirus containing the tetrapeptide C-terminal p53 peptide.) The average survival time for the groups were: 20 days for the PBS control group, 27 days for the adenovirus vector control group (23.25 days for the combined control groups) and 37.25 days for the Ad/4-rep-p53p Adenovirus treated group. Thus, the treatment group infected with the adenovirus containing the C-terminal palindromic tetrapeptide experienced an 86% increase in survival compared to the PBS controls and a 60% increase in survival compared to the combined controls. […]
For animal studies, 15 male fischer rats (age 12-14 weeks, 250 g) were anesthetized, and a 20 gauge plastic guide cannula was cemented into their skulls. […] The rats were monitored for an additional 44 days to determine differences in survival among groups.

Data set [5] concerns normal cells including the pluripotent stem cells for granulocytes, erythrocytes, monocytes and macrophages. The data set is described as follows: Effect on normal cells. It is filed as cell-based.
Another data set relates to MDA-MB-468 tumors. The data set can be described thus: Inducible expression in MDA-MB-468 tumors in athymic nude mice. The data set is classed as in vivo. The note with it: doxycycline 0.5 mg/ml in drinking water; described in present tense. Here is the method:
Four groups of ten animals each are used. Groups 1 and 2 are injected with one million MDA-MB-468 cells containing the inducibly expressible palindromic tetramer in 0.5 ml of basement membrane media. Groups 3 and 4 are injected with one million MDA-MB-468 cells containing the inducibly expressible GFP. The tumors are allowed to develop to a measurable state (approximately 2-3 weeks). Then groups 1 and 3 are given 0.5 mg/ml doxycycline in their drinking water, and groups 2 and 4 are given drinking water without doxycycline. Tumor sizes are measured daily. Animals are then euthanized and the tumors removed for analysis. Tumor sections are assayed for levels of apoptosis by DNA cleavage assay (TUNEL) and activation of caspases and cleavage of PARP.

In data set [6] the test system is engineered MDA-MB-468 human breast cancer cells. The data set is described as follows: TUNEL assay with flow cytometry on engineered cells. It is filed as cell-based. The note with it: 2 μM inhibitor added 6 hours after doxycycline, 24 hr total. Here is the method: TUNEL assay on engineered MDA-MB-468 human breast cancer cells after 24 hours of exposure to 2 μg/ml Doxycycline.
as §1

“Also recorded” adds a separate entry of the source. Where a SMILES comes first, the peptide text is derived from it. The star is where a group is joined. Cbz = O=C(OCc1ccccc1)*; CH2F = FC*

On to `CSCC[C@H](NC(=O)[C@H](CCCCN)NC(=O)[C@H](Cc1c[nH]c2ccccc12)NC(=O)[C@H](CCCCN)NC(=O)[C@H](CCCCN)NC(=O)[C@H](CCCCN)NC(=O)[C@H](CCCCN)NC(=O)[C@H](Cc1c[nH]cn1)NC(=O)[C@H](CCCNC(=N)N)NC(=O)[C@H](CO)NC(=O)[C@@H](NC(=O)[C@H](CO)NC(=O)[C@H](CCC(N)=O)NC(=O)CNC(=O)[C@H](CCCCN)NC(=O)[C@H](CCCCN)NC(=O)[C@H](CO)NC(=O)[C@H](CCCCN)NC(=O)[C@H](CC(C)C)NC(=O)[C@H](Cc1c[nH]cn1)NC(=O)[C@H](CO)NC(=O)[C@H](CO)NC(=O)[C@H](Cc1c[nH]cn1)NC(=O)[C@H](C)NC(=O)[C@H](CCCNC(=N)N)NC(=O)[C@H](CO)NC(=O)CN)[C@@H](C)O)C(=O)N[C@@H](CCCNC(=N)N)C(=O)N[C@@H](CCCNC(=N)N)C(=O)N[C@@H](CC(N)=O)C(=O)N[C@@H](CCC(N)=O)C(=O)N[C@@H](Cc1ccccc1)C(=O)N[C@@H](Cc1c[nH]c2ccccc12)C(=O)N[C@H](C(=O)N[C@@H](CCCCN)C(=O)N[C@H](C(=O)N[C@@H](CCC(N)=O)C(=O)N[C@@H](CCCNC(=N)N)C(=O)NCC(=O)O)C(C)C)C(C)C` [p53 C-terminal peptide (single repeat), reference compound] (H-GSRAHSSHLKSKKGQSTSRHKKKKWKMRRNQFWVKVQRG-OH; N-terminus and C-terminus assumed), for which, in data set [1], the “cell death (PI staining, sub-G1 population)” value was 23%. Further, in data set [2], the Bax expression result was “did not”.
For “p53 palindromic tetramer: C-terminal p53 palindromic tetrapeptide (four aa 353-393 segments, glycine-linked) expressed in cells from inducible or viral construct”, the “decrease in viability (trypan blue exclusion)” value in the data set on MDA-MB-468 cells [3] is on record as “greater than 80%”. Further, the “cell death (sub-G1 peak, propidium iodide staining)” value with MDA-MB-468 cells [4] (after doxycycline induction, stably expressing cell lines) stood at 43%. Besides, in the data set on MDA-MB-468 cells [4] (doxycycline induction, FIG. 4), the “apoptosis (propidium iodide staining and flow cytometry)” value was “greater than 40%”. In addition, in data set [2] (24 hours doxycycline), the Fas expression result is “increase in the expression” and the “caspase 8 expression” value is reported as “increase in the expression”. Further, in data set [2], the PARP cleavage product entry is given as “observed even 12 hours after” and the Bax expression result is “increase in the expression”. Besides, in data set [2] (listed as C-terminal p53 palindromic tetramer), the PARP cleavage product entry is reported as “observed”. For the same compound, in the data set with 9L rat glioma, the “apoptosis of cancer cells in animals” value is “found to induce apoptosis”. The “effect on normal cells” value in data set [5] is listed as “no to minimal effect”. Besides, the “apoptosis of cancer cells in animals” value in the data set on MDA-MB-468 tumors is on record as “found to induce apoptosis”.
Consider `CC[C@H](C)[C@H](NC(=O)OCc1ccccc1)C(=O)N[C@@H](CCC(=O)OC)C(=O)N[C@H](C(=O)N[C@@H](CC(=O)OC)C(=O)CF)[C@@H](C)O` [IETD-FMK] (Cbz-IE(OMe)TD(OMe)-CH2F), for which the “effect of caspase 8 inhibitor on death/TUNEL shift induced by palindromic peptide expression” value in data set [6] is “no shift occurs; also recorded: eliminated”.
